US20230257372A1 (CHONG KUN DANG PHARMACEUTICAL CORP., priority 2020, published 2023)

Assays:
[1] = target: T1, human recombinant HDAC6 (Homo sapiens, UniProt Q9UBN7); assay: HDAC6 enzyme activity inhibition (HDAC Fluorimetric Drug Discovery Kit); assay type: biochemical; settings: for HDAC6 selectivity (fold): HDAC1 IC50 / HDAC6 IC50; for IC50: human recombinant HDAC6, IC50 calculated with GraphPad Prism
T1 construct: purchased Calbiochem Inc. 382180
T1 sequence (Q9UBN7 1-1215): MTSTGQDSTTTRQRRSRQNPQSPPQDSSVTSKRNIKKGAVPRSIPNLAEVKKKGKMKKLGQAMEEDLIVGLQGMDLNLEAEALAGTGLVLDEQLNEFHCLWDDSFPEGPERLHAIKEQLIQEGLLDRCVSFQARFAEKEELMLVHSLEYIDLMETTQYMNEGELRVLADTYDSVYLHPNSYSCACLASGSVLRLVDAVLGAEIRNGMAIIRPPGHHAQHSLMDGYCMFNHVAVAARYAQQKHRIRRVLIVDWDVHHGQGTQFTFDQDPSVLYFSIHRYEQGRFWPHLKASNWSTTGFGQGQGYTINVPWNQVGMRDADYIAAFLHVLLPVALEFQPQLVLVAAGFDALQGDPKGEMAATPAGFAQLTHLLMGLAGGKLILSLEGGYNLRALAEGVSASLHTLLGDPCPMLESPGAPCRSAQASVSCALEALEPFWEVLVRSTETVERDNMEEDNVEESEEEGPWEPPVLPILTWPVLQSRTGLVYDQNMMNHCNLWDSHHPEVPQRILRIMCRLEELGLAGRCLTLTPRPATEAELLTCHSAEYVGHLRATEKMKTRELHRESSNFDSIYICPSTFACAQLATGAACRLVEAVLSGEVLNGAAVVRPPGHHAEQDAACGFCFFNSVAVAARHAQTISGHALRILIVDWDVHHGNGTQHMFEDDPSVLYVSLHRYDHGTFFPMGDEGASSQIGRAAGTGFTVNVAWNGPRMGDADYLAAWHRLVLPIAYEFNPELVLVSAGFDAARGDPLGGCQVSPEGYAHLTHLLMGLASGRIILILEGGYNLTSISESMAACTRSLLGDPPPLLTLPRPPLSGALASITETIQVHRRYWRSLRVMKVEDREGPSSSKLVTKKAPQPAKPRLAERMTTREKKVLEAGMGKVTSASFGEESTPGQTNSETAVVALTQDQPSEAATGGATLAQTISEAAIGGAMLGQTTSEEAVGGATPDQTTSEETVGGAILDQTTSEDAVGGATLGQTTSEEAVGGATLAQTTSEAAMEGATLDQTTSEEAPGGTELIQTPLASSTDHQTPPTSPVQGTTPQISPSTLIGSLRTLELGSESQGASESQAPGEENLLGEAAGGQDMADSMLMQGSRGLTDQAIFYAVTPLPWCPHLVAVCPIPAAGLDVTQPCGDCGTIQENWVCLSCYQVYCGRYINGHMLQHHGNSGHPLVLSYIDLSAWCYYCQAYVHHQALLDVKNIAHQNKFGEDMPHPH
In short: (§1)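 Enzyme at 0.3 µg per well was reacted with 10 μM fluorogenic substrate in presence of 5-fold diluted compound, 30° C for 60 min.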

[2] = target: T2, human recombinant HDAC1 (Homo sapiens, UniProt Q13547); assay: HDAC1 enzyme activity inhibition (HDAC Fluorimetric Drug Discovery Kit); assay type: biochemical; settings: human recombinant HDAC1; IC50 calculated with GraphPad Prism; read-out: HDAC1
T2 construct: purchased Enzo Life Science, Inc. BML-SE456
In short: as §1

T2 sequence (Q13547 whole entry): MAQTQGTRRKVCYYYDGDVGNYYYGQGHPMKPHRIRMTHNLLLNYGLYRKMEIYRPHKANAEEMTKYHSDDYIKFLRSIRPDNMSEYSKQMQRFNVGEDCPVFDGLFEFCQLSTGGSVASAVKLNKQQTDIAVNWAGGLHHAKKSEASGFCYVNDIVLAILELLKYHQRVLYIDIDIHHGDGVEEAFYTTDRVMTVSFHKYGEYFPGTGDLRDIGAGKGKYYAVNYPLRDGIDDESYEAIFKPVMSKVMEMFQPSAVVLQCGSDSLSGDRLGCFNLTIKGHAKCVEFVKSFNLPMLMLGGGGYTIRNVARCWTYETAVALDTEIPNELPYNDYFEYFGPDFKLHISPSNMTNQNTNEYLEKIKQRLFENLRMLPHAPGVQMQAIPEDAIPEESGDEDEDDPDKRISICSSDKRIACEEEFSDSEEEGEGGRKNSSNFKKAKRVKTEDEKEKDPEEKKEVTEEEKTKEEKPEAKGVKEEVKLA

With Fc1cc(-c2nnc(C(F)F)o2)ccc1Cn1cc(C2(F)CCOC2)nn1 (stereo not drawn) [Compound 4283, 2-(difluoromethyl)-5-(3-fluoro-4-((4-(3-fluorotetrahydrofuran-3-yl)-1H-1,2,3-triazol-1-yl)methyl)phenyl)-1,3,4-oxadiazole] the “HDAC6 selectivity (fold)” value [1] was 203 fold, the IC50 [1] was 246 nM and the IC50 [2] was over 50 µM.
FC(F)c1nnc(-c2ccc(Cn3cc(-c4ccc(-n5ccnc5)cc4)nn3)nc2)o1 [Compound 4284, 2-(6-((4-(4-(1H-imidazol-1-yl)phenyl)-1H-1,2,3-triazol-1-yl)methyl)pyridin-3-yl)-5-(difluoromethyl)-1,3,4-oxadiazole] was tested, and the “HDAC6 selectivity (fold)” value [1] was 1915 fold, the IC50 [1] was 26.1 nM and the IC50 [2] was over 50 µM.
For FC(F)c1nnc(-c2ccc(Cn3cc(-c4ccc(-n5cncn5)cc4)nn3)nc2)o1 [Compound 4285, 2-(6-((4-(4-(1H-1,2,4-triazol-1-yl)phenyl)-1H-1,2,3-triazol-1-yl)methyl)pyridin-3-yl)-5-(difluoromethyl)-1,3,4-oxadiazole], the “HDAC6 selectivity (fold)” value [1] was 1577 fold, the IC50 [1] was 31.7 nM and the IC50 [2] was over 50 µM.
In the case of FC(F)c1nnc(-c2ccc(Cn3cc(-c4ccccc4-n4cncn4)nn3)nc2)o1 [Compound 4286, 2-(6-((4-(2-(1H-1,2,4-triazol-1-yl)phenyl)-1H-1,2,3-triazol-1-yl)methyl)pyridin-3-yl)-5-(difluoromethyl)-1,3,4-oxadiazole], the “HDAC6 selectivity (fold)” value [1] is reported as 154 fold, the IC50 [1] is reported as 324 nM and the IC50 [2] is reported as over 50 µM.
With Cc1cc2ccc(-c3cn(Cc4ccc(-c5nnc(C(F)F)o5)cc4)nn3)cc2[nH]1 [Compound 4288] the “HDAC6 selectivity (fold)” value [1] was 486 fold, the IC50 [1] was 103 nM and the IC50 [2] was over 50 µM.
With CN1CCC(c2cccc(-c3cn(Cc4ccc(-c5nnc(C(F)F)o5)cc4F)nn3)c2)CC1 [Compound 4290, 2-(difluoromethyl)-5-(3-fluoro-4-((4-(3-(1-methylpiperidin-4-yl)phenyl)-1H-1,2,3-triazol-1-yl)methyl)phenyl)-1,3,4-oxadiazole] the “HDAC6 selectivity (fold)” value [1] was 909 fold, the IC50 [1] was 55 nM and the IC50 [2] was over 50 µM.
In the case of CCN1CCC(c2cccc(-c3cn(Cc4ccc(-c5nnc(C(F)F)o5)cc4F)nn3)c2)CC1 [Compound 4291, 2-(difluoromethyl)-5-(4-((4-(3-(1-ethylpiperidin-4-yl)phenyl)-1H-1,2,3-triazol-1-yl)methyl)-3-fluorophenyl)-1,3,4-oxadiazole], the “HDAC6 selectivity (fold)” value [1] is reported as 1170 fold, the IC50 [1] is reported as 42.7 nM and the IC50 [2] is reported as over 50 µM.
With CC(C)N1CCC(c2cccc(-c3cn(Cc4ccc(-c5nnc(C(F)F)o5)cc4F)nn3)c2)CC1 [Compound 4292, 2-(difluoromethyl)-5-(3-fluoro-4-((4-(3-(1-isopropylpiperidin-4-yl)phenyl)-1H-1,2,3-triazol-1-yl)methyl)phenyl)-1,3,4-oxadiazole] the “HDAC6 selectivity (fold)” value [1] was 967 fold, the IC50 [1] was 51.7 nM and the IC50 [2] was over 50 µM.
In the case of Fc1cc(-c2nnc(C(F)F)o2)ccc1Cn1cc(-c2cccc(C3CCN(C4COC4)CC3)c2)nn1 [Compound 4293, 2-(difluoromethyl)-5-(3-fluoro-4-((4-(3-(1-(oxetan-3-yl)piperidin-4-yl)phenyl)-1H-1,2,3-triazol-1-yl)methyl)phenyl)-1,3,4-oxadiazole], the “HDAC6 selectivity (fold)” value [1] is reported as 618 fold, the IC50 [1] is reported as 80.9 nM and the IC50 [2] is reported as over 50 µM.
CN1CC(N2CCC(c3cccc(-c4cn(Cc5ccc(-c6nnc(C(F)F)o6)cc5F)nn4)c3)CC2)C1 [Compound 4294, 2-(difluoromethyl)-5-(3-fluoro-4-((4-(3-(1-(1-methylazetidin-3-yl)piperidin-4-yl)phenyl)-1H-1,2,3-triazol-1-yl)methyl)phenyl)-1,3,4-oxadiazole] was tested, and the “HDAC6 selectivity (fold)” value [1] was 791 fold, the IC50 [1] was 63.2 nM and the IC50 [2] was over 50 µM.
